Test results from patent US11718604B2, “4-amino-6-(1,3-benzodioxole)picolinates and their use as herbicides” (Dow AgroSciences LLC, priority 2018, dated 2023).

Key:
Format in all cases: in vivo
[1] = system: IPOHE: ivyleaf morningglory (Ipomoea hederacea); assay: Post-emergent herbicidal test, ivyleaf morningglory; conditions: post-emergence, 336 h, 14 days after application, read-out: Visual Growth Reduction (%) 14 Days After Application IPOHE; for pest or weed control at 17.5 g/ha: 17.5 g ai/ha; for pest or weed control at 35 g/ha: 35 g ai/ha; for pest or weed control at 70 g/ha: 70 g ai/ha; for pest or weed control at 140 g/ha: 140 g ai/ha
Outline: (§1)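 Seedlings grown in greenhouse (23-29 °C day, 22-28 °C night, ~15 h photoperiod) to first or second true leaf stage were sprayed overhead at 187 L/ha with compound in acetone/DMSO/water/isopropanol/crop oil/Triton X-155, at the high rate and ½× to 1/16× dilutions. Injury scored visually after 14 d, 0 (none) to 100% (complete kill), relative to untreated plants.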

[2] = system: CIRAR: Canada thistle (Cirsium arvense); assay: Post-emergent herbicidal test, Canada thistle; conditions: post-emergence, 336 h, 14 days after application, read-out: Visual Growth Reduction (%) 14 Days After Application CIRAR; for pest or weed control at 17.5 g/ha: 17.5 g ai/ha; for pest or weed control at 35 g/ha: 35 g ai/ha; for pest or weed control at 70 g/ha: 70 g ai/ha; for pest or weed control at 140 g/ha: 140 g ai/ha
Outline: as §1

[3] = system: BRSNN: oilseed rape, canola (Brassica napus); assay: Post-emergent herbicidal test, oilseed rape; conditions: post-emergence, 336 h, 14 days after application, read-out: Visual Growth Reduction (%) 14 Days After Application BRSNN; for pest or weed control at 17.5 g/ha: 17.5 g ai/ha; for pest or weed control at 35 g/ha: 35 g ai/ha; for pest or weed control at 70 g/ha: 70 g ai/ha; for pest or weed control at 140 g/ha: 140 g ai/ha
Outline: as §1

[4] = system: SETFA: giant foxtail (Setaria faberi); assay: Post-emergent herbicidal test, giant foxtail; conditions: post-emergence, 336 h, 14 days after application, read-out: Visual Growth Reduction (%) 14 Days After Application SETFA; for pest or weed control at 17.5 g/ha: 17.5 g ai/ha; for pest or weed control at 35 g/ha: 35 g ai/ha; for pest or weed control at 70 g/ha: 70 g ai/ha; for pest or weed control at 140 g/ha: 140 g ai/ha
Outline: as §1

[5] = system: SORVU: shattercane (Sorghum bicolor); assay: Post-emergent herbicidal test, shattercane; conditions: post-emergence, 336 h, 14 days after application, read-out: Visual Growth Reduction (%) 14 Days After Application SORVU; for pest or weed control at 17.5 g/ha: 17.5 g ai/ha; for pest or weed control at 35 g/ha: 35 g ai/ha; for pest or weed control at 70 g/ha: 70 g ai/ha; for pest or weed control at 140 g/ha: 140 g ai/ha
Outline: as §1

[6] = system: CYPES: yellow nutsedge (Cyperus esculentus); assay: Post-emergent herbicidal test, yellow nutsedge; conditions: post-emergence, 336 h, 14 days after application, read-out: Visual Growth Reduction (%) 14 Days After Application CYPES; for pest or weed control at 17.5 g/ha: 17.5 g ai/ha; for pest or weed control at 35 g/ha: 35 g ai/ha; for pest or weed control at 70 g/ha: 70 g ai/ha; for pest or weed control at 140 g/ha: 140 g ai/ha
Outline: as §1

[7] = system: VIOTR: wild violet (Viola tricolor); assay: Post-emergent herbicidal test, wild violet; conditions: post-emergence, 336 h, 14 days after application, read-out: Visual Growth Reduction (%) 14 Days After Application VIOTR; for pest or weed control at 17.5 g/ha: 17.5 g ai/ha; for pest or weed control at 35 g/ha: 35 g ai/ha; for pest or weed control at 70 g/ha: 70 g ai/ha; for pest or weed control at 140 g/ha: 140 g ai/ha
Outline: as §1

[8] = system: ABUTH: velvetleaf (Abutilon theophrasti); assay: Post-emergent herbicidal test, velvetleaf; conditions: post-emergence, 336 h, 14 days after application, read-out: Visual Growth Reduction (%) 14 Days After Application ABUTH; for pest or weed control at 17.5 g/ha: 17.5 g ai/ha; for pest or weed control at 35 g/ha: 35 g ai/ha; for pest or weed control at 70 g/ha: 70 g ai/ha; for pest or weed control at 140 g/ha: 140 g ai/ha
Outline: as §1

[9] = system: ECHCG: barnyardgrass (Echinochloa crus-galli); assay: Post-emergent herbicidal test, barnyardgrass; conditions: post-emergence, 336 h, 14 days after application, read-out: Visual Growth Reduction (%) 14 Days After Application ECHCG; for pest or weed control at 17.5 g/ha: 17.5 g ai/ha; for pest or weed control at 35 g/ha: 35 g ai/ha; for pest or weed control at 70 g/ha: 70 g ai/ha; for pest or weed control at 140 g/ha: 140 g ai/ha
Outline: as §1

[10] = system: EPHHL: wild poinsettia (Euphorbia heterophylla); assay: Post-emergent herbicidal test, wild poinsettia; conditions: post-emergence, 336 h, 14 days after application, read-out: Visual Growth Reduction (%) 14 Days After Application EPHHL; for pest or weed control at 17.5 g/ha: 17.5 g ai/ha; for pest or weed control at 35 g/ha: 35 g ai/ha; for pest or weed control at 70 g/ha: 70 g ai/ha; for pest or weed control at 140 g/ha: 140 g ai/ha
Outline: as §1

[11] = system: DIGSA: large crabgrass (Digitaria sanguinalis); assay: Post-emergent herbicidal test, large crabgrass; conditions: post-emergence, 336 h, 14 days after application, read-out: Visual Growth Reduction (%) 14 Days After Application DIGSA; for pest or weed control at 17.5 g/ha: 17.5 g ai/ha; for pest or weed control at 35 g/ha: 35 g ai/ha; for pest or weed control at 70 g/ha: 70 g ai/ha; for pest or weed control at 140 g/ha: 140 g ai/ha
Outline: as §1

Molecule `COC(=O)c1nc(-c2cccc3c2OC(F)(F)O3)c(F)c(N)c1Cl` [Compound 4] has a pest or weed control at 17.5 g/ha [1] of 0%, a pest or weed control at 35 g/ha [1] of 10% and a pest or weed control at 70 g/ha [1] of 10%. The pest or weed control at 140 g/ha [1] was 30%, the pest or weed control at 17.5 g/ha [2] was 80% and the pest or weed control at 35 g/ha [2] was 90%. For the same molecule, the pest or weed control at 70 g/ha [2] was 95%, the pest or weed control at 140 g/ha [2] was 90% and the pest or weed control at 17.5 g/ha [3] was 85%. It also gave a pest or weed control at 35 g/ha [3] of 90%, a pest or weed control at 70 g/ha [3] of 95% and a pest or weed control at 140 g/ha [3] of 95%. It also gave a pest or weed control at 17.5 g/ha [4] of 0%, a pest or weed control at 35 g/ha [4] of 0% and a pest or weed control at 70 g/ha [4] of 0%. For the same molecule, the pest or weed control at 140 g/ha [4] was 0%, the pest or weed control at 17.5 g/ha [5] was 0% and the pest or weed control at 35 g/ha [5] was 0%. It also gave a pest or weed control at 70 g/ha [5] of 0%, a pest or weed control at 140 g/ha [5] of 0% and a pest or weed control at 17.5 g/ha [6] of 0%. The pest or weed control at 35 g/ha [6] was 20%, the pest or weed control at 70 g/ha [6] was 50% and the pest or weed control at 140 g/ha [6] was 50%. It also gave a pest or weed control at 17.5 g/ha [7] of 0%, a pest or weed control at 35 g/ha [7] of 0% and a pest or weed control at 70 g/ha [7] of 20%. For the same molecule, the pest or weed control at 140 g/ha [7] was 35%, the pest or weed control at 17.5 g/ha [8] was 70% and the pest or weed control at 35 g/ha [8] was 80%. It also gave a pest or weed control at 70 g/ha [8] of 80%, a pest or weed control at 140 g/ha [8] of 85% and a pest or weed control at 17.5 g/ha [9] of 0%. For the same molecule, the pest or weed control at 35 g/ha [9] was 0%, the pest or weed control at 70 g/ha [9] was 0% and the pest or weed control at 140 g/ha [9] was 0%. The pest or weed control at 17.5 g/ha [10] was 0%, the pest or weed control at 35 g/ha [10] was 0% and the pest or weed control at 70 g/ha [10] was 0%. It also gave a pest or weed control at 140 g/ha [10] of 0%, a pest or weed control at 17.5 g/ha [11] of 0% and a pest or weed control at 35 g/ha [11] of 0%. It also gave a pest or weed control at 70 g/ha [11] of 0% and a pest or weed control at 140 g/ha [11] of 0%.
`COC(=O)c1nc(-c2ccc(Cl)c3c2OC(F)(F)O3)c(F)c(N)c1Cl` [Compound 6] gave a pest or weed control at 17.5 g/ha [1] of 0%, a pest or weed control at 35 g/ha [1] of 3% and a pest or weed control at 70 g/ha [1] of 3%. The pest or weed control at 140 g/ha [1] was 10%, the pest or weed control at 17.5 g/ha [2] was 70% and the pest or weed control at 35 g/ha [2] was 77%. The pest or weed control at 70 g/ha [2] was 85%, the pest or weed control at 140 g/ha [2] was 88% and the pest or weed control at 17.5 g/ha [3] was 80%. It also gave a pest or weed control at 35 g/ha [3] of 82%, a pest or weed control at 70 g/ha [3] of 92% and a pest or weed control at 140 g/ha [3] of 97%. For the same molecule, the pest or weed control at 17.5 g/ha [4] was 0%, the pest or weed control at 35 g/ha [4] was 0% and the pest or weed control at 70 g/ha [4] was 0%. It also gave a pest or weed control at 140 g/ha [4] of 3%, a pest or weed control at 17.5 g/ha [5] of 0% and a pest or weed control at 35 g/ha [5] of 2%. It also gave a pest or weed control at 70 g/ha [5] of 10%, a pest or weed control at 140 g/ha [5] of 23% and a pest or weed control at 17.5 g/ha [6] of 30%. The pest or weed control at 35 g/ha [6] was 25%, the pest or weed control at 70 g/ha [6] was 25% and the pest or weed control at 140 g/ha [6] was 60%. For the same molecule, the pest or weed control at 17.5 g/ha [7] was 3%, the pest or weed control at 35 g/ha [7] was 12% and the pest or weed control at 70 g/ha [7] was 30%. For the same molecule, the pest or weed control at 140 g/ha [7] was 53%, the pest or weed control at 17.5 g/ha [8] was 75% and the pest or weed control at 35 g/ha [8] was 77%. For the same molecule, the pest or weed control at 70 g/ha [8] was 80%, the pest or weed control at 140 g/ha [8] was 83% and the pest or weed control at 17.5 g/ha [9] was 0%. It also gave a pest or weed control at 35 g/ha [9] of 0%, a pest or weed control at 70 g/ha [9] of 3% and a pest or weed control at 140 g/ha [9] of 3%. For the same molecule, the pest or weed control at 17.5 g/ha [10] was 2%, the pest or weed control at 35 g/ha [10] was 0% and the pest or weed control at 70 g/ha [10] was 2%. The pest or weed control at 140 g/ha [10] was 7%, the pest or weed control at 17.5 g/ha [11] was 0% and the pest or weed control at 35 g/ha [11] was 0%. It also gave a pest or weed control at 70 g/ha [11] of 0% and a pest or weed control at 140 g/ha [11] of 0%.
